Laboratory results reported in US9718792B2, “Isoxazoline hydroxamic acid derivatives as LpxC inhibitors” (priority 2014, dated 2017).
Values after ≈ are worked out from the molar mass of the structure shown.

Assays:
[1] = biological target: P. aeruginosa LpxC (Pseudomonas aeruginosa (strain ATCC 15692 / DSM 22644 / CIP 104116 / JCM 14847 / LMG 12228 / 1C / PRS 101 / PAO1), UniProt P47205); test: P. aeruginosa LpxC Inhibition Assay; format: biochemical; details: 1 nM P. aeruginosa LpxC, 2 μM substrate, LC-MS/MS; read-out: PA LpxC IC50
In short: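 Compounds pre-incubated 30 min at room temperature with 1 nM LpxC, then 2 μM UDP-3-O-(R-3-hydroxydecanoyl)-GlcNAc added; 20 min reaction in 50 mM sodium phosphate pH 7.5, 0.005% Triton X-100, quenched with HOAc. Product quantified by LC-MS/MS against calibration curve; IC50 from four-parameter logistic fit.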

[2] = test system: P. aeruginosa PAO1; test: Susceptibility Testing (MIC, broth microdilution); format: cell-based, Pseudomonas aeruginosa; details: Pseudomonas aeruginosa, PAO1, 20 h, P. aeruginosa PAO1, broth microdilution, 20 hours; read-out: PAO1 MIC
In short: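 Broth microdilution per CLSI in cation-adjusted Mueller-Hinton broth, inoculum ~5×10^5 CFU/mL, two-fold compound dilutions (1% DMSO final). Plates incubated 20 h in ambient air at 35° C. MIC is the lowest concentration preventing visible growth, confirmed by OD 600 nm reading.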

| IC50 [1] [pM] | MIC [2] [µg/mL] | SMILES |
| --- | --- | --- |
| < 500 | 0.71 (≈ 1.53 µM) | C[S+]([O-])c1ccc(-c2ccc(C3=NO[C@@H](C[C@](C)(C(=O)NO)S(C)(=O)=O)C3)cc2)cc1 (stereo partly drawn) [Compound 74, (2R)—N-hydroxy-2-methyl-3-((5R)-3-(4′-(methylsulfinyl)-[1,1′-biphenyl]-4-yl)-4,5-dihydroisoxazol-5-yl)-2-(methylsulfonyl) propanamide] |
| < 500 | 2 (≈ 4.26 µM) | C[C@@](C[C@H]1CC(c2ccc(-c3ccc(-n4nccn4)cc3)cc2)=NO1)(C(=O)NO)S(C)(=O)=O [Compound 77, (R)-3-((R)-3-(4′-(2H-1,2,3-triazol-2-yl)-[1,1′-biphenyl]-4-yl)-4,5-dihydroisoxazol-5-yl)-N-hydroxy-2-methyl-2-(methylsulfonyl)propanamide] |
| < 500 | 0.35 (≈ 0.747 µM) | COc1cc(F)c(-c2ccc(C3=NO[C@@H](C[C@](C)(C(=O)NO)S(C)(=O)=O)C3)cc2)c(F)c1 [Compound 79, (R)-3-((R)-3-(2′,6′-difluoro-4′-methoxy-[1,1′-biphenyl]-4-yl)-4,5-dihydroisoxazol-5-yl)-N-hydroxy-2-methyl-2-(methylsulfonyl)propanamide] |
| 2000 | 16 (≈ 34.7 µM) | CC(C)(O)c1cc(-c2ccc(C3=NO[C@@H](C[C@](C)(C(=O)NO)S(C)(=O)=O)C3)cc2)ccn1 [Compound 81, (R)—N-hydroxy-3-((R)-3-(4-(2-(2-hydroxypropan-2-yl)pyridin-4-yl)phenyl)-4,5-dihydroisoxazol-5-yl)-2-methyl-2-(methylsulfonyl)propanamide] |
| < 500 | 1 (≈ 2.37 µM) | C[C@@](C[C@H]1CC(c2ccc(-c3cnccc3F)cc2)=NO1)(C(=O)NO)S(C)(=O)=O [Compound 83, (R)-3-((R)-3-(4-(4-fluoropyridin-3-yl)phenyl)-4,5-dihydroisoxazol-5-yl)-N-hydroxy-2-methyl-2-(methylsulfonyl)propanamide] |
| < 500 | 1 (≈ 2.17 µM) | CC(C)(O)c1ccc(-c2ccc(C3=NO[C@@H](C[C@](C)(C(=O)NO)S(C)(=O)=O)C3)cc2)cn1 [Compound 84, (R)—N-hydroxy-3-((R)-3-(4-(6-(2-hydroxypropan-2-yl)pyridin-3-yl)phenyl)-4,5-dihydroisoxazol-5-yl)-2-methyl-2-(methylsulfonyl)propanamide] |

More lines, now with the values behind:

| SMILES | IC50 [1] [pM] | MIC [2] [µg/mL] |
| --- | --- | --- |
| CCc1cc(-c2ccc(C3=NO[C@@H](C[C@](C)(C(=O)NO)S(C)(=O)=O)C3)cc2)ccn1 [Compound 71, (R)-3-((R)-3-(4-(2-ethylpyridin-4-yl)phenyl)-4,5-dihydroisoxazol-5-yl)-N-hydroxy-2-methyl-2-(methylsulfonyl)propanamide] | 6000 | 0.71 (≈ 1.65 µM) |
| COC(CO)c1ccc(-c2ccc(C3=NO[C@@H](C[C@](C)(C(=O)NO)S(C)(=O)=O)C3)cc2)cc1 (stereo partly drawn) [Compound 75, (2R)—N-hydroxy-3-((5R)-3-(4′-(2-hydroxy-1-methoxyethyl)-[1,1′-biphenyl]-4-yl)-4,5-dihydroisoxazol-5-yl)-2-methyl-2-(methylsulfonyl)propanamidepropanamide] | < 500 | 0.5 (≈ 1.05 µM) |
| C[C@@](C[C@H]1CC(c2ccc(-c3ccc(S(C)(=N)=O)cc3)cc2)=NO1)(C(=O)NO)S(C)(=O)=O (stereo partly drawn) [Compound 76, (2R)—N-hydroxy-2-methyl-3-((5R)-3-(4′-(S-methylsulfonimidoyl)-[1,1′-biphenyl]-4-yl)-4,5-dihydroisoxazol-5-yl)-2-(methylsulfonyl)propanamide] | < 500 | 2 (≈ 4.17 µM) |
| C[C@@](C[C@H]1CC(c2ccc(-c3ccncc3)cc2)=NO1)(C(=O)NO)S(C)(=O)=O [Compound 78, (R)-3-((R)-3-(4-(pyridin-4-yl)phenyl)-4,5-dihydroisoxazol-5-yl)-N-hydroxy-2-methyl-2-(methylsulfonyl)propanamide] | < 500 | 1 (≈ 2.48 µM) |
| C[C@@](C[C@H]1CC(c2ccc(-c3ccncc3Cl)cc2)=NO1)(C(=O)NO)S(C)(=O)=O [Compound 82, (R)-3-((R)-3-(4-(3-chloropyridin-4-yl)phenyl)-4,5-dihydroisoxazol-5-yl)-N-hydroxy-2-methyl-2-(methylsulfonyl)propanamide] | < 500 | 0.35 (≈ 0.799 µM) |
